# Results taken from patent US20240092835A1, “NOVEL PEPTIDES CAPABLE OF ALTERING NK CELL ACTIVITY” (Massachusetts Institute of Technology, priority 2022, published 2024).
# Experiments:
# NKG2A+/NKG2C− NK cells = assay: NK cell activation markers in NKG2A+/NKG2C- NK cells incubated with peptide and K562 expressing HLA-E (inhibition); type: cell-based, human; details: for percentage of CCL3+ NK cells / percentage of CD107a+ NK cells / percentage of IFNG+ NK cells / percentage of TNF+ NK cells: NKG2A+/NKG2C- NK cells, K562/HLA-E
# Procedure: (§1) A human immortalized myelogenous leukemia cell line (K562), which expresses HLA-E was incubated with novel peptides (Table 1) derived from the human proteome or human cytomegalovirus proteome. […] Controls assessments were also performed using NKG2A−/NKG2C− cells (Tables 10-13). Inhibition was indicated by a decrease in percent cells positive for cell surface markers, while activation was indicated by an increase in percent cells positive for cell surface markers.
# NKG2A−/NKG2C+ NK cells = assay: NK cell activation markers in NKG2A-/NKG2C+ NK cells incubated with peptide and K562 expressing HLA-E (activation); type: cell-based, human; details: for percentage of CCL3+ NK cells / percentage of CD107+ NK cells / percentage of IFNG+ NK cells / percentage of TNF+ NK cells: NKG2A-/NKG2C+ NK cells, K562/HLA-E
# Procedure: as §1
# NKG2A−/NKG2C− NK cells = assay: NK cell activation markers in control NKG2A-/NKG2C- NK cells incubated with peptide and K562 expressing HLA-E; type: cell-based, human
# Procedure: as §1
# HLA-E = target: T1, HLA-E (Homo sapiens, UniProt P13747); assay: HLA-E surface stabilization assay with RMA-S/HLA-E cells; type: cell-based; details: 30 μM peptide, 16 hours; for HLA-E surface expression stability (GeoMFI): anti-HLA-E antibody
# T1 construct: expressed in transfected cells; host or cells: RMA-S/HLA-E cells (antigen processing-defective lymphoma cell line)
# Procedure: HLA-E surface expression was assessed by measuring geometric mean fluorescence intensity (GeoMFI) in RMA-S cells following immunofluorescence staining with an anti-HLA-E antibody (Table 14). Increased GeoMFI was indicative of increased HLA-E surface expression stability following novel peptide exposures (FIG. 3).
# [1] = K562 expressing HLA-E, CD107a, IFNG, TNF, CCL3
# T1 sequence (P13747 22-358): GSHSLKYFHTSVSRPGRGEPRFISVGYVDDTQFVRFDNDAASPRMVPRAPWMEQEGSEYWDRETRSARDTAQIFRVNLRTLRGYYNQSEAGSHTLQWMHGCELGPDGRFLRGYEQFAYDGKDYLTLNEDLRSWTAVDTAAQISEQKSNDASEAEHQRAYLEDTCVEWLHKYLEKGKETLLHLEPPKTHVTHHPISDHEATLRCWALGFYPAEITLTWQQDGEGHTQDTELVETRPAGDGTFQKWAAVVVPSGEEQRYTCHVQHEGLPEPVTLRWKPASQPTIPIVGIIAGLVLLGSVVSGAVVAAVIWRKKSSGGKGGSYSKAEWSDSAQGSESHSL
# T1 sequence (P61769 21-119 partner): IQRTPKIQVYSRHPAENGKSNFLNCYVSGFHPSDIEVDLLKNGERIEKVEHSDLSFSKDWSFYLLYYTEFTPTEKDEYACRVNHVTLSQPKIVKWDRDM
sequence,measurement,setting,value
"FLPNRSLLF [human8, peptide SLC52A3 354-362 derived from the human proteome]",effect on NKG2A+/NKG2C− NK cell inhibition (in words),NKG2A+/NKG2C− NK cells; [1],mild inhibitory effects
same,percentage of CCL3+ NK cells,NKG2A+/NKG2C− NK cells; Trial 1,39.5%
same,percentage of CD107a+ NK cells,NKG2A+/NKG2C− NK cells; Trial 1,19.1%
same,percentage of IFNG+ NK cells,NKG2A+/NKG2C− NK cells; Trial 1,5.56%
same,percentage of TNF+ NK cells,NKG2A+/NKG2C− NK cells; Trial 1,1.84%
same,percentage of CCL3+ NK cells,NKG2A+/NKG2C− NK cells; Trial 2,56%
same,percentage of CD107a+ NK cells,NKG2A+/NKG2C− NK cells; Trial 2,26.4%
same,percentage of IFNG+ NK cells,NKG2A+/NKG2C− NK cells; Trial 2,10.5%
same,percentage of TNF+ NK cells,NKG2A+/NKG2C− NK cells; Trial 2,4.8%
same,percentage of CCL3+ NK cells,NKG2A+/NKG2C− NK cells; Trial 3,38.2%
same,percentage of CD107a+ NK cells,NKG2A+/NKG2C− NK cells; Trial 3,27.5%
same,percentage of IFNG+ NK cells,NKG2A+/NKG2C− NK cells; Trial 3,14.7%
same,percentage of TNF+ NK cells,NKG2A+/NKG2C− NK cells; Trial 3,6.96%
same,percentage of CCL3+ NK cells,NKG2A+/NKG2C− NK cells; Trial 4,32.8%
same,percentage of CD107a+ NK cells,NKG2A+/NKG2C− NK cells; Trial 4,28.2%
same,percentage of IFNG+ NK cells,NKG2A+/NKG2C− NK cells; Trial 4,12.7%
same,percentage of TNF+ NK cells,NKG2A+/NKG2C− NK cells; Trial 4,7.59%
same,percentage of CCL3+ NK cells,NKG2A+/NKG2C− NK cells; Trial 5,33.3%
same,percentage of CD107a+ NK cells,NKG2A+/NKG2C− NK cells; Trial 5,17.7%
same,percentage of IFNG+ NK cells,NKG2A+/NKG2C− NK cells; Trial 5,7.1%
same,percentage of TNF+ NK cells,NKG2A+/NKG2C− NK cells; Trial 5,3.6%
same,percentage of CCL3+ NK cells,NKG2A+/NKG2C− NK cells; Trial 6,27.1%
same,percentage of CD107a+ NK cells,NKG2A+/NKG2C− NK cells; Trial 6,20%
same,percentage of IFNG+ NK cells,NKG2A+/NKG2C− NK cells; Trial 6,6.74%
same,percentage of TNF+ NK cells,NKG2A+/NKG2C− NK cells; Trial 6,4.07%
same,effect on NKG2A−/NKG2C+ NK cell activation (in words),NKG2A−/NKG2C+ NK cells; [1],strong activating effects
same,percentage of CCL3+ NK cells,NKG2A−/NKG2C+ NK cells; Trial 1,75.5%
same,percentage of CD107+ NK cells,NKG2A−/NKG2C+ NK cells; Trial 1,73.7%
same,percentage of IFNG+ NK cells,NKG2A−/NKG2C+ NK cells; Trial 1,58.6%
same,percentage of TNF+ NK cells,NKG2A−/NKG2C+ NK cells; Trial 1,45.1%
same,percentage of CCL3+ NK cells,NKG2A−/NKG2C+ NK cells; Trial 2,89%
same,percentage of CD107+ NK cells,NKG2A−/NKG2C+ NK cells; Trial 2,82.1%
same,percentage of IFNG+ NK cells,NKG2A−/NKG2C+ NK cells; Trial 2,74.8%
same,percentage of TNF+ NK cells,NKG2A−/NKG2C+ NK cells; Trial 2,64%
same,percentage of CCL3+ NK cells,NKG2A−/NKG2C+ NK cells; Trial 3,84.1%
same,percentage of CD107+ NK cells,NKG2A−/NKG2C+ NK cells; Trial 3,84.3%
same,percentage of IFNG+ NK cells,NKG2A−/NKG2C+ NK cells; Trial 3,74.5%
same,percentage of TNF+ NK cells,NKG2A−/NKG2C+ NK cells; Trial 3,63.7%
same,percentage of CCL3+ NK cells,NKG2A−/NKG2C+ NK cells; Trial 4,65.3%
same,percentage of CD107+ NK cells,NKG2A−/NKG2C+ NK cells; Trial 4,64.8%
same,percentage of IFNG+ NK cells,NKG2A−/NKG2C+ NK cells; Trial 4,54%
same,percentage of TNF+ NK cells,NKG2A−/NKG2C+ NK cells; Trial 4,43.7%
same,percentage of CCL3+ NK cells,NKG2A−/NKG2C+ NK cells; Trial 5,74.6%
same,percentage of CD107+ NK cells,NKG2A−/NKG2C+ NK cells; Trial 5,70.7%
same,percentage of IFNG+ NK cells,NKG2A−/NKG2C+ NK cells; Trial 5,62.3%
same,percentage of TNF+ NK cells,NKG2A−/NKG2C+ NK cells; Trial 5,57.1%
same,percentage of CCL3+ NK cells,NKG2A−/NKG2C+ NK cells; Trial 6,57%
same,percentage of CD107+ NK cells,NKG2A−/NKG2C+ NK cells; Trial 6,53.1%
same,percentage of IFNG+ NK cells,NKG2A−/NKG2C+ NK cells; Trial 6,43.8%
same,percentage of TNF+ NK cells,NKG2A−/NKG2C+ NK cells; Trial 6,31.7%
same,percentage CCL3+ NK cells,NKG2A−/NKG2C− NK cells; Trial 1,33.5%
same,percentage CD107+ NK cells,NKG2A−/NKG2C− NK cells; Trial 1,27.7%
same,percentage TNF+ NK cells,NKG2A−/NKG2C− NK cells; Trial 1,4.82%
same,percentage of IFNG+ NK cells,NKG2A−/NKG2C− NK cells; Trial 1,14.7%
same,percentage CCL3+ NK cells,NKG2A−/NKG2C− NK cells; Trial 2,60.3%
same,percentage CD107+ NK cells,NKG2A−/NKG2C− NK cells; Trial 2,36.2%
same,percentage TNF+ NK cells,NKG2A−/NKG2C− NK cells; Trial 2,10.5%
same,percentage of IFNG+ NK cells,NKG2A−/NKG2C− NK cells; Trial 2,28.8%
same,percentage CCL3+ NK cells,NKG2A−/NKG2C− NK cells; Trial 3,52.4%
same,percentage CD107+ NK cells,NKG2A−/NKG2C− NK cells; Trial 3,47.3%
same,percentage TNF+ NK cells,NKG2A−/NKG2C− NK cells; Trial 3,16.5%
same,percentage of IFNG+ NK cells,NKG2A−/NKG2C− NK cells; Trial 3,38%
same,percentage CCL3+ NK cells,NKG2A−/NKG2C− NK cells; Trial 4,32%
same,percentage CD107+ NK cells,NKG2A−/NKG2C− NK cells; Trial 4,28.6%
same,percentage TNF+ NK cells,NKG2A−/NKG2C− NK cells; Trial 4,9.61%
same,percentage of IFNG+ NK cells,NKG2A−/NKG2C− NK cells; Trial 4,18.6%
same,percentage CCL3+ NK cells,NKG2A−/NKG2C− NK cells; Trial 5,29.2%
same,percentage CD107+ NK cells,NKG2A−/NKG2C− NK cells; Trial 5,20.2%
same,percentage TNF+ NK cells,NKG2A−/NKG2C− NK cells; Trial 5,6.07%
same,percentage of IFNG+ NK cells,NKG2A−/NKG2C− NK cells; Trial 5,14.2%
same,percentage CCL3+ NK cells,NKG2A−/NKG2C− NK cells; Trial 6,24.8%
same,percentage CD107+ NK cells,NKG2A−/NKG2C− NK cells; Trial 6,19.3%
same,percentage TNF+ NK cells,NKG2A−/NKG2C− NK cells; Trial 6,3.78%
same,percentage of IFNG+ NK cells,NKG2A−/NKG2C− NK cells; Trial 6,10.9%
same,HLA-E surface expression stability (GeoMFI),HLA-E; Trial 1,1066 GeoMFI
same,HLA-E surface expression stability (GeoMFI),HLA-E; Trial 2,813 GeoMFI
same,HLA-E surface expression stability (GeoMFI),HLA-E; Trial 3,1049 GeoMFI
same,HLA-E surface expression stability (GeoMFI),HLA-E; Trial 4,1654 GeoMFI
same,"HLA-E surface expression stabilization strength, approximate GeoMFI",HLA-E; approximate value,approximately 1×10^3 GeoMFI
